Data: patent US8747846B2, “Compositions and methods for immunization against drug resistant Acinetobacter baumannii” (priority 2011, dated 2014)
≈ marks a conversion by molar mass, not a printed value. Like-named read-outs stand apart in the source and are kept apart here.

Experiments:
Type in all cases: cell-based, Acinetobacter baumannii
A. baumannii HUMC6 = experiment: microbe, parasite or virus in culture; conditions: for MIC: Acinetobacter baumannii
A. baumannii HUMC5 = experiment: microbe, parasite or virus in culture; conditions: for MIC: Acinetobacter baumannii
A. baumannii ATCC 17978 = experiment: Antibacterial minimum inhibitory concentrations for clinical isolates; conditions: strain ATCC 17978; for MIC: Acinetobacter baumannii, ATCC17978
A. baumannii HUMC4 = experiment: microbe, parasite or virus in culture; conditions: for MIC: Acinetobacter baumannii
A. baumannii HUMC1 = experiment: microbe, parasite or virus in culture; conditions: for MIC: Acinetobacter baumannii
A. baumannii HUMC12 = experiment: microbe, parasite or virus in culture; conditions: for MIC: Acinetobacter baumannii
[1] = strain HUMC6, read-out: Antibacterial Minimum Inhibitory Concentrations
[2] = strain HUMC5, read-out: Antibacterial Minimum Inhibitory Concentrations
[3] = strain HUMC4, read-out: Antibacterial Minimum Inhibitory Concentrations
[4] = HUMC1, read-out: Antibacterial Minimum Inhibitory Concentrations
[5] = strain HUMC12, read-out: Antibacterial Minimum Inhibitory Concentrations
[6] = strain HUMC1, read-out: Antibacterial Minimum Inhibitory Concentrations

With `C[C@@H](O)[C@H]1C(=O)N2C(C(=O)O)=C(S[C@@H]3CN[C@H](C(=O)N(C)C)C3)[C@H](C)[C@H]12` [Meropenem] the MIC (A. baumannii HUMC6; [1]) was 8 µg/mL (≈ 20.9 µM), the MIC (A. baumannii HUMC5; [2]) was 8 µg/mL (≈ 20.9 µM) and the MIC (A. baumannii ATCC 17978) was 0.25 µg/mL (≈ 0.652 µM). It also gave an MIC (A. baumannii HUMC4; [3]) of 8 µg/mL (≈ 20.9 µM), an MIC (A. baumannii HUMC1; [4]) of 32 µg/mL (≈ 83.4 µM) and an MIC (A. baumannii HUMC12; [5]) of 4 µg/mL (≈ 10.4 µM).
For Colistin, the “Antibacterial Minimum Inhibitory Concentrations” value (A. baumannii HUMC6; strain HUMC6) was 2 µg/mL, the “Antibacterial Minimum Inhibitory Concentrations” value (A. baumannii HUMC5; strain HUMC5) was 2 µg/mL and the “Antibacterial Minimum Inhibitory Concentrations” value (A. baumannii ATCC 17978) was 2 µg/mL. The “Antibacterial Minimum Inhibitory Concentrations” value (A. baumannii HUMC4; strain HUMC4) was 2 µg/mL, the “Antibacterial Minimum Inhibitory Concentrations” value (A. baumannii HUMC1; strain HUMC1) was 2 µg/mL and the “Antibacterial Minimum Inhibitory Concentrations” value (A. baumannii HUMC12; strain HUMC12) was 2 µg/mL.
Work on `NCC[C@H](O)C(=O)N[C@@H]1C[C@H](N)[C@@H](O[C@H]2O[C@H](CN)[C@@H](O)[C@H](O)[C@H]2O)[C@H](O)[C@H]1O[C@H]1O[C@H](CO)[C@@H](O)[C@H](N)[C@H]1O` [Amikacin] yielded an MIC (A. baumannii HUMC6; [1]) greater than 128 µg/mL, an MIC (A. baumannii HUMC5; [2]) greater than 128 µg/mL and an MIC (A. baumannii ATCC 17978) of 8 µg/mL (≈ 13.7 µM). It also gave an MIC (A. baumannii HUMC4; [3]) greater than 128 µg/mL, an MIC (A. baumannii HUMC1; [4]) greater than 128 µg/mL and an MIC (A. baumannii HUMC12; [5]) greater than 128 µg/mL.
In the case of Ampicillin/sulbactam, the “Antibacterial Minimum Inhibitory Concentrations” value (A. baumannii HUMC6; strain HUMC6) is reported as 32/16, the “Antibacterial Minimum Inhibitory Concentrations” value (A. baumannii HUMC5; strain HUMC5) is reported as 32/16 and the “Antibacterial Minimum Inhibitory Concentrations” value (A. baumannii HUMC4; strain HUMC4) is reported as 32/16. For the same compound, the “Antibacterial Minimum Inhibitory Concentrations” value (A. baumannii HUMC1; strain HUMC1) was 16/8 and the “Antibacterial Minimum Inhibitory Concentrations” value (A. baumannii HUMC12; strain HUMC12) was 32/16.
`C[C@@H](O)[C@H]1C(=O)N2C(C(=O)O)=C(SCCN=CN)C[C@H]12` [Imipenem] was tested, and the MIC (A. baumannii HUMC6; [1]) was 4 µg/mL (≈ 13.4 µM), the MIC (A. baumannii HUMC5; [2]) was 4 µg/mL (≈ 13.4 µM) and the MIC (A. baumannii ATCC 17978) was 0.25 µg/mL (≈ 0.835 µM). The MIC (A. baumannii HUMC4; [3]) was 4 µg/mL (≈ 13.4 µM), the MIC (A. baumannii HUMC1; [6]) was 16 µg/mL (≈ 53.4 µM) and the MIC (A. baumannii HUMC12; [5]) was 2 µg/mL (≈ 6.68 µM).
With `C[C@@H](O)[C@H]1C(=O)N2C(C(=O)O)=C(S[C@@H]3CN[C@H](CNS(N)(=O)=O)C3)[C@H](C)[C@H]12` [Doripenem] the MIC (A. baumannii HUMC6; [1]) was 4 µg/mL (≈ 9.51 µM), the MIC (A. baumannii HUMC5; [2]) was 8 µg/mL (≈ 19 µM) and the MIC (A. baumannii ATCC 17978) was 0.5 µg/mL (≈ 1.19 µM). The MIC (A. baumannii HUMC4; [3]) was 4 µg/mL (≈ 9.51 µM), the MIC (A. baumannii HUMC1; [6]) was 16 µg/mL (≈ 38 µM) and the MIC (A. baumannii HUMC12; [5]) was 8 µg/mL (≈ 19 µM).
With Pipercillin/tazobactam the “Antibacterial Minimum Inhibitory Concentrations” value (A. baumannii HUMC6; strain HUMC6) was <128/4, the “Antibacterial Minimum Inhibitory Concentrations” value (A. baumannii HUMC5; strain HUMC5) was <128/4 and the “Antibacterial Minimum Inhibitory Concentrations” value (A. baumannii HUMC4; strain HUMC4) was <128/4. The “Antibacterial Minimum Inhibitory Concentrations” value (A. baumannii HUMC1; strain HUMC1) was <128/4 and the “Antibacterial Minimum Inhibitory Concentrations” value (A. baumannii HUMC12; strain HUMC12) was <128/4.
For Gentamicin, the “Antibacterial Minimum Inhibitory Concentrations” value (A. baumannii HUMC6; strain HUMC6) was greater than 128 µg/mL, the “Antibacterial Minimum Inhibitory Concentrations” value (A. baumannii HUMC5; strain HUMC5) was greater than 128 µg/mL and the “Antibacterial Minimum Inhibitory Concentrations” value (A. baumannii ATCC 17978) was 8 µg/mL. The “Antibacterial Minimum Inhibitory Concentrations” value (A. baumannii HUMC4; strain HUMC4) was greater than 128 µg/mL, the “Antibacterial Minimum Inhibitory Concentrations” value (A. baumannii HUMC1; strain HUMC1) was greater than 128 µg/mL and the “Antibacterial Minimum Inhibitory Concentrations” value (A. baumannii HUMC12; strain HUMC12) was greater than 128 µg/mL.
For `C[C@@H](O)[C@H]1C(=O)N2C(C(=O)O)=C(S[C@@H]3CN[C@H](C(=O)Nc4cccc(C(=O)O)c4)C3)[C@H](C)[C@H]12` [Ertapenem], the MIC (A. baumannii HUMC6; [1]) was 32 µg/mL (≈ 67.3 µM), the MIC (A. baumannii HUMC5; [2]) was 32 µg/mL (≈ 67.3 µM) and the MIC (A. baumannii ATCC 17978) was 4 µg/mL (≈ 8.41 µM). The MIC (A. baumannii HUMC4; [3]) was 32 µg/mL (≈ 67.3 µM), the MIC (A. baumannii HUMC1; [6]) was 128 µg/mL (≈ 269 µM) and the MIC (A. baumannii HUMC12; [5]) was 16 µg/mL (≈ 33.6 µM).
With `CN(C)c1cc(NC(=O)CNC(C)(C)C)c(O)c2c1C[C@H]1C[C@H]3[C@H](N(C)C)C(O)=C(C(N)=O)C(=O)[C@@]3(O)C(O)=C1C2=O` [Tigecycline] the MIC (A. baumannii HUMC6; HUMC6, read-out: Antibacterial Minimum Inhibitory Concentrations) was 4 µg/mL (≈ 6.83 µM), the MIC (A. baumannii HUMC5; HUMC5, read-out: Antibacterial Minimum Inhibitory Concentrations) was 4 µg/mL (≈ 6.83 µM) and the MIC (A. baumannii ATCC 17978) was 0.25 µg/mL (≈ 0.427 µM). For the same compound, the MIC (A. baumannii HUMC4; HUMC4, read-out: Antibacterial Minimum Inhibitory Concentrations) was 4 µg/mL (≈ 6.83 µM), the MIC (A. baumannii HUMC1; [4]) was 4 µg/mL (≈ 6.83 µM) and the MIC (A. baumannii HUMC12; HUMC12, read-out: Antibacterial Minimum Inhibitory Concentrations) was 4 µg/mL (≈ 6.83 µM).
